The record followed here is patent US20260116845A1, “LIPIDS AND COMPOSITIONS THEREOF” (Kernal Biologics, Inc., priority 2023, published 2026).

The subject of one experiment is AML12 Cell Line. The experiment can be described thus: Transfection of AML12 Cell Line with FLuc mRNA LNPs (ONE-Glo EX luciferase signal). To be noted: 200 ng Fluc mRNA-LNP, 24 hours; Table 4. The format is cell-based. The gist of the method: (§1)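 Firefly luciferase luminescence measured 24 h after transfection with 200 ng mRNA-LNP per well in Opti-MEM. Seeding: 5,000 cells/well for B16F10 and MC38.K, 20,000 for AML12. LNPs were pre-incubated 30 min with mouse serum; mRNA content determined by RiboGreen.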

The next experiment has as its system Liver. The experiment can be described thus: Ex-vivo luminescence signal from liver after IV Fluc mRNA LNPs in CD1 mice (IVIS). To be noted: tail vein 1.0 mg/kg Day 0 and Day 2, imaging 18 hours after second dose, Table 4.
For a further experiment, the system named is B16F10 Cell Line. Nature of the experiment: Transfection of B16F10 Cell Line with FLuc mRNA LNPs (ONE-Glo EX luciferase signal). The format is cell-based. To be noted: 200 ng Fluc mRNA-LNP, 24 hours; Table 4. In outline: as §1
The test system of another experiment is MC38.K Cell Line. The experiment can be described thus: Transfection of MC38.K Cell Line with FLuc mRNA LNPs (ONE-Glo EX luciferase signal). The note with it: 200 ng Fluc mRNA-LNP, 24 hours; Table 4. The format is cell-based. In outline: as §1

With `CCCCCCCCCOC(=O)CCCCCCCN(CCO)CCCCCCC(C)C(=O)OC(CCCCCCCC)CCCCCCCC` (stereo not drawn) [Compound 36], the “Total Luciferin Signal (RLU) In Vitro - AML12” value in the experiment on AML12 Cell Line was determined as 2.18E+05 RLU. In addition, the “Total Liver Tissue Luciferin Signal (Photons/s) Ex-vivo - CD1” value (“Total Liver Tissue Luciferin Signal” for short) with Liver was determined as 6.41E+08 Photons/s. Moreover, the “Total Luciferin Signal (RLU) In Vitro - B16F10” value in the experiment with B16F10 Cell Line is 2.85E+05 RLU. Also, in the experiment with MC38.K Cell Line, the “Total Luciferin Signal (RLU) In Vitro - MC38.K” value is recorded as 2.32E+05 RLU.

For the compound `CCCCCCCCC(CCCCCCCC)OC(=O)CCCCCCCN(CCO)CCCCCC(=O)OCCCCCCCCC(C)C` [Compound 1], in the experiment on AML12 Cell Line, the “Total Luciferin Signal (RLU) In Vitro - AML12” value was 1.96E+06 RLU. For the same compound, the “Total Liver Tissue Luciferin Signal” value with Liver worked out at 9.00E+09 Photons/s. In addition, in the experiment on B16F10 Cell Line, the “Total Luciferin Signal (RLU) In Vitro - B16F10” value is listed as 6.92E+06 RLU. Besides, the “Total Luciferin Signal (RLU) In Vitro - MC38.K” value with MC38.K Cell Line turned out to be 7.83E+06 RLU.

Consider `CCCCCCCCCOC(=O)C(C)CCCCCCN(CCO)CCCCCCCC(=O)OC(CCCCCCCC)CCCCCCCC` (stereo not drawn) [Compound 37], for which, in the experiment with AML12 Cell Line, the “Total Luciferin Signal (RLU) In Vitro - AML12” value amounted to 7.63E+05 RLU. Also, in the experiment with Liver, the “Total Liver Tissue Luciferin Signal” value worked out at 6.65E+09 Photons/s. The “Total Luciferin Signal (RLU) In Vitro - B16F10” value with B16F10 Cell Line turned out to be 2.66E+06 RLU. Moreover, in the experiment on MC38.K Cell Line, the “Total Luciferin Signal (RLU) In Vitro - MC38.K” value is reported as 1.00E+06 RLU.

Regarding `CCCCCCCCC(CCCCCCCC)C(=O)OCCCCCCCN(CCO)CCCCCCCOC(=O)CCCCCCCC=C(C)C` [Compound 20], in the experiment with AML12 Cell Line, the “Total Luciferin Signal (RLU) In Vitro - AML12” value amounted to 7.65E+05 RLU. Besides, the “Total Liver Tissue Luciferin Signal” value in the experiment with Liver was 7.61E+09 Photons/s. The “Total Luciferin Signal (RLU) In Vitro - B16F10” value in the experiment with B16F10 Cell Line worked out at 4.65E+05 RLU. Moreover, the “Total Luciferin Signal (RLU) In Vitro - MC38.K” value in the experiment on MC38.K Cell Line was determined as 7.88E+05 RLU.

As to `CCCCCCCCCOC(=O)C(C)CCCCCCN(CCO)CCCCCCCC(=O)OC(CCCCCCCC)CCCCCCCCF` (stereo not drawn) [Compound 61, nonyl 8-((8-((1-fluoroheptadecan-9-yl)oxy)-8-oxooctyl)(2-hydroxyethyl)amino)-2-methyloctanoate], the “Total Luciferin Signal (RLU) In Vitro - AML12” value in the experiment with AML12 Cell Line came to 8.13E+05 RLU. Besides, in the experiment with Liver, the “Total Liver Tissue Luciferin Signal” value came out at 1.38E+10 Photons/s. The “Total Luciferin Signal (RLU) In Vitro - B16F10” value in the experiment with B16F10 Cell Line is 9.46E+05 RLU. Besides, the “Total Luciferin Signal (RLU) In Vitro - MC38.K” value with MC38.K Cell Line is listed as 1.11E+07 RLU.

Regarding `CCCCCCCCCOC(=O)C(C)CCCCCCN(CCCCO)CCCCCCCC(=O)OC(CCCCCCCC)CCCCCCCC` (stereo not drawn) [Compound 62, nonyl 8-((8-(heptadecan-9-yloxy)-8-oxooctyl)(4-hydroxybutyl)amino)-2-methyloctanoate], the “Total Luciferin Signal (RLU) In Vitro - AML12” value in the experiment on AML12 Cell Line was found to be 2.33E+06 RLU. In the experiment on Liver, the “Total Liver Tissue Luciferin Signal” value stood at 1.03E+10 Photons/s. Besides, in the experiment on B16F10 Cell Line, the “Total Luciferin Signal (RLU) In Vitro - B16F10” value is 2.73E+06 RLU. The “Total Luciferin Signal (RLU) In Vitro - MC38.K” value in the experiment with MC38.K Cell Line was found to be 3.47E+07 RLU.

In the case of `CCCCCCCCCOC(=O)CCCCCCCN(CCCCCCC(C)C(=O)OC(CCCCCCCC)CCCCCCCC)CCOC(=O)CCCN(C)C` (stereo not drawn) [Compound 38, heptadecan-9-yl 8-((2-((4-(dimethylamino)butanoyl)oxy)ethyl)(8-(nonyloxy)-8-oxooctyl)amino)-2-methyloctanoate], the “Total Luciferin Signal (RLU) In Vitro - AML12” value in the experiment with AML12 Cell Line is on record as 1.22E+06 RLU. Moreover, the “Total Liver Tissue Luciferin Signal” value in the experiment on Liver was 5.28E+07 Photons/s. The “Total Luciferin Signal (RLU) In Vitro - B16F10” value with B16F10 Cell Line was 2.75E+06 RLU. Further, the “Total Luciferin Signal (RLU) In Vitro - MC38.K” value in the experiment with MC38.K Cell Line was determined as 2.06E+06 RLU.

As to `CCCCCCCCC(CCCCCCCC)C(=O)OCCCCCCCN(CCCCCC(=O)OCCCCCCCCC(C)C)CCOC(=O)CCCN(C)C` [Compound 9], in the experiment with AML12 Cell Line, the “Total Luciferin Signal (RLU) In Vitro - AML12” value stood at 6.57E+05 RLU. Moreover, the “Total Liver Tissue Luciferin Signal” value in the experiment with Liver came to 4.41E+07 Photons/s. For the same compound, the “Total Luciferin Signal (RLU) In Vitro - B16F10” value in the experiment on B16F10 Cell Line is on record as 3.27E+06 RLU. The “Total Luciferin Signal (RLU) In Vitro - MC38.K” value with MC38.K Cell Line was 1.23E+06 RLU.

As for `CCCCCCCCC(CCCCCCCCF)OC(=O)CCCCCCCN(CCO)CCCCCCCC(=O)OCCCCCCCCC(C)C` (stereo not drawn) [Compound 10], the “Total Luciferin Signal (RLU) In Vitro - AML12” value in the experiment with AML12 Cell Line turned out to be 7.51E+05 RLU. Also, the “Total Liver Tissue Luciferin Signal” value in the experiment on Liver is 8.34E+09 Photons/s. Besides, in the experiment with B16F10 Cell Line, the “Total Luciferin Signal (RLU) In Vitro - B16F10” value turned out to be 4.57E+05 RLU. Moreover, in the experiment on MC38.K Cell Line, the “Total Luciferin Signal (RLU) In Vitro - MC38.K” value was 6.38E+05 RLU.
